{"source": "patent US8668942B2", "about": "“Skin anti-oxidant enhancing formulation and associated method” (Fishrock Laboratories, Inc., priority 2012, dated 2014)", "key": {"[1]": {"assay": "Total Oxygen radical Scavenging Capacity (TOSC) assay", "format": "biochemical", "settings": "for total antioxidant activities, times higher than Trolox: in momordica cochinchinensis aril; for antioxidant capacity, higher than Trolox: in the gac oil", "protocol": "(§1) Antioxidant capacities were assessed by the overall abilities of the compounds to suppress peroxyl radicals generated from the thermal homolysis of 2,2′-azobis-amidinopropane. Stock solutions of all samples were diluted 1/100 and 1/1000. […] However, at a lower concentration (dilution of 1/1000), the gac aril provided the highest peroxyl radical-scavenging capacity, 1.8 and 1.3 times as much as β-carotene and lycopene, respectively (FIG. 1b).\nUsing the TOSC method, it was apparent that total antioxidant activities of beta-carotene and lycopene in momordica cochinchinensis aril were high (2 times higher than Trolox), an analogue of Vitamin E commonly used a gold standard. The comparative TOSC values (cTOSC) of gac (Redmelon™) aril maintains 5.4 times greater than Trolox. […] The results are summarized below in the following table"}, "[2]": {"assay": "Oxygen Radical Absorbance capacity (ORAC) assay", "format": "biochemical", "settings": "1/100 dilution of stock solutions; FIG. 1a", "protocol": "Those figures depict graphical comparison of the antioxidant values of momordica cochichinchinensis (gac) aril, β-carotene, and lycopene using […] (ORAC) assay, ORAC values were obtained using a Trolox standard linear regression line.\nas §1"}}}
{"molecule": "Cc1c(C)c2c(c(C)c1O)CCC(C)(C(=O)O)O2", "note": "(stereo not drawn) [Trolox]", "values": [{"measurement": "cTOSC", "setting": "[1]; comparative TOSC value", "value": 1.00}, {"measurement": "rTOSC", "setting": "[1]; peroxyl radical scavenging capacity", "value": 4.51}]}
{"molecule": "CC1=C(/C=C/C(C)=C/C=C/C(C)=C/C=C/C=C(C)/C=C/C=C(C)/C=C/C2=C(C)CCCC2(C)C)C(C)(C)CCC1", "note": "[beta-carotene]", "values": [{"measurement": "total antioxidant activities, times higher than Trolox", "setting": "[1]; relative to Trolox", "value": 2, "unit": "times"}, {"measurement": "antioxidant capacity, higher than Trolox", "setting": "[1]; relative to Trolox", "value": 50, "unit": "%"}]}
{"molecule": "CC(C)=CCC/C(C)=C/C=C/C(C)=C/C=C/C(C)=C/C=C/C=C(C)/C=C/C=C(C)/C=C/C=C(\\C)CCC=C(C)C", "note": "[lycopene]", "values": [{"measurement": "ability to scavenge peroxyl radicals, times as much as the Redmelon™ aril", "setting": "[2]", "value": 1.4, "unit": "times"}, {"measurement": "ability to scavenge peroxyl radicals, times as much as β-carotene", "setting": "[2]", "value": 2.4, "unit": "times"}, {"measurement": "total antioxidant activities, times higher than Trolox", "setting": "[1]; relative to Trolox", "value": 2, "unit": "times"}, {"measurement": "antioxidant capacity, higher than Trolox", "setting": "[1]; relative to Trolox", "value": 50, "unit": "%"}, {"measurement": "peroxyl radical scavenging capacity (rTOSC), times greater than Trolox", "setting": "[1]; relative to Trolox", "value": 24, "unit": "times"}]}
